Assay results published in US20170276668A1, “NEURAL MICROPHYSIOLOGICAL SYSTEMS AND METHODS OF USING THE SAME” (The Administrators of the Tulane Educational Fund, priority 2014, published 2017).
“Also recorded” adds a separate entry of the source.

Legend:
DRG neurites = assay: DRG neurite growth toward a factor diffusing from a reservoir in the hydrogel construct; assay type: cell-based; conditions: NGF vs BSA diffusing from a reservoir, FIG. 28
[1] = system: neuronal cell death in vitro; conditions: cited from earlier work
[2] = system: DRG/Schwann cell co-culture; assay: DRG/SC three-dimensional co-culture: neurite growth and myelin formation (immunohistochemistry, confocal); assay type: cell-based, rat
From the text: The dual hydrogel culture system was fabricated using a digital projection photolithography, as described above. A schematic of the process is seen in FIG. 13. In brief, a photolithography apparatus comprised of a collimated UV light source (OmniCure 1000 with 320-500 nm filter, EXFO, Quebec, Canada) and a visible light source (SOLA light engine with […] filter, Lumencor, Oreg., USA), a digital micromirror device (DMD) (Discovery™ 3000, Texas Instruments, Dallas, Tex.) as a dynamic photomask and a 2× Plan Fluor objective lens (Nikon Instruments, Tokyo, Japan) were utilized to irradiate the photocurable hydrogel solution that was contained in a permeable cell culture insert with 0.4 μm pore size. The inserts were either collagen-coated PTFE Transwell® Permeable Support or Transwell™ Clear Polyester Membrane Inserts (Corning Inc., Corning, N.Y., USA) to investigate the influence of collagenated substrates on SC/neuron incorporation. The dual hydrogel system consists of two compartments: a cell permissive section that contains neurons and a cell restrictive section that acts as a hydrogel mold. In order to make the cell restrictive section, a solution of 10% (w/v) PEG-diacrylate (Mn 1000; Polysciences Inc., Warrington, Pa.) and 0.5% (w/v) Irgacure 2959 in PBS was irradiated with 85 mW/cm2 UV light as measured by a radiometer (306 UV Powermeter, Optical Associates, San Jose, Calif.), for 38 seconds to make a PEG micromold, shown in FIG. 13. The cell culture insert was treated with filtered Rain-X® Original Glass Treatment (RainX, Houston, Tex.) prior to addition of the gel solution in order to avoid meniscus behavior. 0.5 ml of solution was added to each 6-well plate insert. Addition of 0.5 ml solution results in a gel thickness of 480 μm. Hydrogel constructs were washed in DPBS with 1% antibiotic-antimycotic additive to inhibit contamination.
As the first step of the co-culture, the primary tissue culture was performed. The PEG constructs were prepared and immersed in the adhesion media and incubated (37° C., 5% C02) overnight prior to the tissue culture. The adhesion media was comprised of Neurobasal medium supplemented with B27 (2% v/v), L-glutamine (0.25% v/v), nerve growth factor (NGF) (0.02 μg/ml), fetal bovine serum (FBS) (10% v/v/) and penicillin/streptomycin (1% v/v) (all from Life Technologies, CA). The constructs were then cultured with Long Evans rat embryo dorsal root ganglion (DRG) tissue, in keeping with the guidelines of the Institutional Animal Care and Use Committee. The DRGs were isolated from embryonic day 15 rat embryos and trimmed prior to the culture. A single DRG explant was placed in each construct. The DRGs were then incubated in fresh adhesion media overnight to allow the tissue to adhere to the insert
The SCs were dispersed in 50% MeDex solution in SC medium as described above to reach a cell count of 20×10^6 cell/mL. In order to achieve an evenly distributed single cell solution, the gel mixture was pipetted up and down vigorously. The adhesion medium was aspirated from the channels gently to avoid disturbing the adhered DRGs and 2 μL of the MeDex single cell solution was added to each PEG micromold. A negative photomask was loaded on the DMD and the gel solution in the channel was crosslinked with 85 mW/cm^2 visible light as measured by a radiometer (306 UV Powermeter, Optical Associates, San Jose, Calif.) after 30 seconds of irradiation using a visible light source (SOLA light engine with 375-650 nm filter, Lumencor, Oreg., USA). The constructs were gently washed using the wash buffer described above three times.
In order to understand the influence of various media regimens on the behavior of DRGs and SCs in a three-dimensional co-culture, two different culture systems were applied. The culture systems are described in Table 2. Culture System 1 has two phases where Media 1 (10 days) and 2 (15 days) are applied in that order. […]

[3] = system: DRG explants in dual hydrogel constructs; assay type: cell-based, rat; conditions: for response duration before (t1-t5) vs after (t16-t20) drug wash-in / response amplitude before (t1-t5) vs after (t16-t20) drug wash-in: 20 μM DNQX and 50 μM APV applied together; for response duration before (t1-t5) vs after (t16-t20) drug wash-in: n=4, at half-peak; for response amplitude before (t1-t5) vs after (t16-t20) drug wash-in: n=4, peak-to-peak
Retinal explants = assay: Retinal explant culture in 3D micropatterned hydrogels; assay type: cell-based, rat; conditions: neurobasal Sato medium supplemented with the factor, one week, β-III tubulin
Method: Work and experimental data for the dorsal root ganglia model is presented in the present disclosure. For a central nervous system model, the growth of retinal explants has also been explored. FIGS. 27A-27B depict a culture of retinal (CNS) tissue. Retinal explants from embryonic rats were cultured within 3D micropatterned hydrogels in “neurobasal Sato” medium supplemented with either ciliary neurotrophic factor CNTF ([…]) or brain-derived neurotrophic factor BDNF ([…]).

## NGF: nerve growth factor
DRG neurites
  direction of DRG neurite growth: grow preferentially toward NGF

## CC(=O)O[C@H]1C(=O)[C@@]2(C)[C@H]([C@H](OC(=O)c3ccccc3)[C@]3(O)C[C@H](OC(=O)[C@H](O)[C@@H](NC(=O)c4ccccc4)c4ccccc4)C(C)=C1C3(C)C)[C@]1(OC(C)=O)CO[C@@H]1C[C@@H]2O [Paclitaxel]
[1]
  Neurotoxic dose: 0.1 µM

## collagen
[2]; 25 days, addition of collagen I and III
  amount of myelin formation: increased
[2]; 25 days, collagen-coated inserts, n=15-18 constructs
  volume of neuronal outgrowth, cultures with vs without collagen: significantly higher volume; also recorded: significantly more neuronal growth
[2]; 25 days, presence of collagen, FIG. 17B
  amount of MBP-positive myelin: increased
[2]; 25 days, presence of collagen, FIG. 18B
  amount of PO-positive myelin: increased

## CC(C)C[C@H](NC(=O)[C@H](Cc1ccccc1)NC(=O)c1cnccn1)B(O)O [Bortezomib]
[1]
  Neurotoxic dose: 0.02 µM

## O=C1N=c2cc([N+](=O)[O-])c([N+](=O)[O-])cc2=NC1=O [DNQX, 6,7-dinitroquinoxaline-2,3Dione]
[3]
  response duration before (t1-t5) vs after (t16-t20) drug wash-in: no statistically significant difference; also recorded: no marked change
  response amplitude before (t1-t5) vs after (t16-t20) drug wash-in: no statistically significant difference; also recorded: no marked change

## N[C@H](CCCP(=O)(O)O)C(=O)O [APV, (2R)-amino-5-phosphonopentanoate]
[3]
  response duration before (t1-t5) vs after (t16-t20) drug wash-in: no statistically significant difference; also recorded: no marked change
  response amplitude before (t1-t5) vs after (t16-t20) drug wash-in: no statistically significant difference; also recorded: no marked change

## NC1=N[C@H](O)[C@H]2[C@H]3O[C@]4(O)O[C@@H]([C@@H](O)[C@@]2(N1)[C@@H]4O)[C@]3(O)CO [TTX, tetrodotoxin]
[3]
  average response amplitude (peak-to-peak) after wash-in: 0.04 μV
  effect on CAP / population response: reversibly abolished; also recorded: completely abolished; also recorded: abolishment of population response
  time to complete abolishment of responses: ≤ 2 min

## CC[C@]1(O)C[C@H]2CN(CCc3c([nH]c4ccccc34)[C@@](C(=O)OC)(c3cc4c(cc3OC)N(C=O)[C@H]3[C@@](O)(C(=O)OC)[C@H](OC(C)=O)[C@]5(CC)C=CCN6CC[C@]43[C@@H]65)C2)C1 [Vincristine]
[1]
  Neurotoxic dose: 0.1 µM

## O=C1O[C@H]([C@@H](O)CO)C(O)=C1O [AA, L-ascorbic acid]
[2]; 25 days of media containing AA (NCol-25, Col-25)
  amount of myelin: considerable increase
[2]; longer exposures to AA, MBP, MAG, PO stains
  ratio of myelin to neuronal growth (percentage of myelin): increases

B1: CNTF: ciliary neurotrophic factor (protein, UniProt P26441 1-200, looked up)
Ciliary neurotrophic factor: MAFTEHSPLTPHRRDLCSRSIWLARKIRSDLTALTESYVKHQGLNKNINLDSADGMPVASTDQWSELTEAERLQENLQAYRTFHVLLARLLEDQQVHFTPTEGDFHQAIHTLLLQVAAFAYQIEELMILLEYKIPRNEADGMPINVGDGGLFEKKLWGLKVLQELSQWTVRSIHDLRFISSHQTGIPARGSHYIANNKKM
Retinal explants
  retinal ganglion cell axon extension: Observable retinal ganglion cell axon extension

B2: BDNF: brain-derived neurotrophic factor (protein, UniProt P23560 19-247, looked up)
Neurotrophic factor BDNF …: APMKEANIRGQGGLAYPGVRTHGTLESVNGPKAGSRGLTSLADTFEHVIEELLDEDQKVRPNEENNKDADLYTSRVMLSSQVPLEPPLLFLLEEYKNYLDAANMSMRVRRHSDPARRGELSVCDSISEWVTAADKKTAVDMSGGTVTVLEKVPVSKGQLKQYFYETKCNPMGYTKEGCRGIDKRHWNSQCRTTQSYVRALTMDSKKRIGWRFIRIDTSCVCTLTIKRGR
Retinal explants
  retinal ganglion cell axon extension: Observable retinal ganglion cell axon extension
